Assays:
sirtuin 1 gene = experiment: Sirtuin 1 gene expression-promoting effect (1); type: cell-based; details: normal human epidermal keratinocytes, 0.02 wt %, 72 hours; control = 100%
Method: Normal human epidermal keratinocytes were seeded into 12-well culture plates at 7.5×10^4 cells per well. As the medium, EpiLife KG-2 medium supplemented with insulin, hEGF, hydrocortisone, anti-microbial agents, and BPE was used (basal medium), and the cells were preincubated in 5% CO2 at 37° C. for 72 hours. The medium was removed and then replaced with a sample medium supplemented with resveratrol 3-O-α-glucoside to a concentration of 0.02 wt %, and the cells were cultured in 5% CO2 at 37° C. After 72 hours, total RNA was extracted from the cells, and the level of expression of the sirtuin 1 gene was quantified by real time PCR. As a control group, cells were cultured without resveratrol 3-O-α-glucoside, and total RNA collected from these cells was used.
Taking as 100% the level of expression of the sirtuin 1 gene for the control group, a relative ratio of the expression level of the sirtuin 1 gene for the resveratrol 3-O-α-glucoside-supplemented group (SIRT 1 gene expression ratio, %) was determined. In the measurement of the expression level of the sirtuin 1 gene, PPIA was used for internal standard correction.

[1] = Storage stability in 30 vol % aqueous ethanol (coloration, residual content); type: physicochemical; details: 2 mM in 30 vol % aqueous ethanol, 40° C., light-tight, 6 months
Method: Each of resveratrol 3-O-α-glucoside (produced in Production Example 1), resveratrol (Tokyo Chemical Industry Co., Ltd.), and resveratrol 4′-O-α-glucoside (produced in Production Example 1) was dissolved in a 30 vol % aqueous solution of ethanol to a concentration of 2 mM, and the solution was stored at 40° C. under light-tight conditions. The coloration of the solution after being stored for 6 months was visually observed. Further, absorbances at 430 nm of the solution before and after the storage were measured, and the residual amount of each of the components in the solution was analyzed using HPLC. HPLC was performed under the same conditions as those described in Production Example 1.

[2] = system: human skin model (EpiDerm EPI-200; MatTek); experiment: Skin cell activation effect, MTT survival rate in three-dimensional human skin model; type: cell-based; details: 100 μL, 72 hours, water control = 100%
Method: Using a three-dimensional human skin model, the skin cell activation effect of resveratrol 3-O-α-glucoside was investigated.
Resveratrol 3-O-α-glucoside was prepared into an aqueous solution having a concentration of 0.02, 0.05, 0.07, or 0.1 wt %, and the resulting solution was used as a sample solution. One-hundred microliters of the sample solution were administered to the horny layer side of the human skin model (EpiDerm EPI-200; MatTek), and cultured in 5 mL of a special medium (EPI-100-ASY) at 37° C. for 72 hours. After the culture, the survival rate of cells in the skin model was measured using the MTT (Thiazolyl Blue Tetrazolium Bromide) method based on the manual, and a relative ratio of the survival rate (cell growth improvement rate; %) after the administration of each of the sample solutions was calculated, taking as 100% the survival rate of a control group to which water not containing resveratrol 3-O-α-glucoside was administered.

[3] = SOD-like activity (SOD Test Wako kit); type: biochemical
Method: Resveratrol 3-O-α-glucoside was dissolved in a 15% ethanol solution to a concentration of 5, 10, or 20 mmol/L, and the resulting solution was used as a sample solution.
Using the sample solution prepared as above, the SOD-like activity was evaluated using an SOD measurement kit (SOD Test Wako; Wako Pure Chemical Industries, Ltd.).

[4] = system: skin model (EPI-200X; MatTek); type: in vitro ADME, human
Method: Using a three-dimensional human skin model, permeabilities of resveratrol 3-O-α-glucoside and resveratrol into the skin model when administered via the skin surface were compared.
Resveratrol 3-O-α-glucoside or resveratrol (Tokyo Chemical Industry Co., Ltd.) was prepared into a 0.2 wt % solution or suspension with the addition of PBS, and the resulting solution was used as a test substance. The skin model (EPI-200X; MatTek) was loaded into a special fixture (EPI-100-FIX; MatTek), and placed in the 6-well plate of the receiver. One-hundred microliters of the test substance were added to the horny layer side, and 5 mL of PBS was added to the receiver side. After being allowed to stand at 37° C. for 20 hours, the skin model was collected, and the surface of the skin model was washed well with PBS. The skin model after being washed was homogenized in PBS. After the homogenate was centrifuged, resveratrols in the supernatant were quantified using HPLC under the same conditions as described in Production Example 1 above, and the amount of resveratrols was converted into the equivalent of agly cones.

[5] = DPPH radical scavenging effect; type: biochemical
Method: Resveratrol 3-O-α-glucoside was dissolved in water to a concentration of 100, 250, 500, or 1000 μmol/L, and the resulting solution was used as a sample solution.
In 10 mL of ethanol, 2 mg of 2,2-diphenyl-1-picrylhydrazyl (Wako Pure Chemical Industries, Ltd.) was dissolved, and the resulting solution was used as the DPPH solution.
Using each of the solutions prepared as above, the DPPH radical scavenging effect was evaluated in accordance with the following procedures. One-hundred microliters of the sample solution, 500 μL, of the DPPH solution, 250 μL of a […] MES (2-morpholinoethanesulfonic acid) buffer, and 150 μL of distilled water were mixed and reacted at 30° C. for 30 minutes. The absorbance at 517 nm was subsequently measured. Further, distilled water (control solution) was used instead of the sample solution, and the absorbance at 517 nm was measured under the same conditions as described above. From the measured value of absorbance, the DPPH radical scavenging ratio was determined in accordance with the equation shown below. DPPH radical scavenging ratio (%)=(A−B)/A×100 [Equation 2]

tyrosinase = details: Non-Patent Literatures 1 and 2; cited from earlier work

| Structure (SMILES) | SIRT 1 Gene Expression Ratio (%) (sirtuin 1 gene) | Coloration: Difference between Absorbances at 430 nm (Δ A 430) before and after Storage [1] | Coloration: Visual Observation [1] | Residual Content (%) ([1]; HPLC) | Cell Growth Improvement Rate (%) ([2]; 0.02 wt % aqueous solution) | Cell Growth Improvement Rate (%) ([2]; 0.05 wt % aqueous solution) | Cell Growth Improvement Rate (%) ([2]; 0.07 wt % aqueous solution) | Cell Growth Improvement Rate (%) ([2]; 0.1 wt % aqueous solution) | SOD-Like Activity (%) ([3]; 5 mmol/L in the sample solution (15% ethanol)) | SOD-Like Activity (%) ([3]; 10 mmol/L in the sample solution (15% ethanol)) | SOD-Like Activity (%) ([3]; 20 mmol/L in the sample solution (15% ethanol)) | amount of permeation into the skin model relative to resveratrol [4] [times] | DPPH Radical Scavenging Ratio (%) ([5]; 100 μmol/L in the sample solution) | DPPH Radical Scavenging Ratio (%) ([5]; 250 μmol/L in the sample solution) | DPPH Radical Scavenging Ratio (%) ([5]; 500 μmol/L in the sample solution) | DPPH Radical Scavenging Ratio (%) ([5]; 1000 μmol/L in the sample solution) | tyrosinase inhibitory effect compared to resveratrol (tyrosinase) |
| --- | --- | --- | --- | --- | --- | --- | --- | --- | --- | --- | --- | --- | --- | --- | --- | --- | --- |
| OC[C@H]1O[C@H](Oc2cc(O)cc(C=Cc3ccc(O)cc3)c2)[C@H](O)[C@@H](O)[C@@H]1O [Resveratrol 3-O-α-Glucoside, resveratrol 3-O-α-glucoside] | 171 | 0.03 | colorless | 93 | 106 | 115 | 116 | 117 | 18 | 35 | 47 | 3.5 | 13 | 30 | 50 | 75 |  |
| OC[C@H]1O[C@@H](Oc2cc(O)cc(/C=C/c3ccc(O)cc3)c2)[C@H](O)[C@@H](O)[C@@H]1O [Resveratrol 3-O-β-Glucoside, resveratrol 3-O-β-glucoside] |  |  |  |  |  |  |  |  |  |  |  |  |  |  |  |  | inferior |
